Assay results as given in patent US9725442B2, “Heterocyclic derivative having PGD2 receptor antagonist activity” (Shionogi & Co., Ltd., priority 2011, dated 2017).
Like-named read-outs stand apart in the source and are kept apart here.

How the values were obtained:
[1] = biological target: Human DP1 receptor (Homo sapiens (Human), UniProt Q13258); assay: Human DP1 inhibitory activity in DP1-expressing cell (PGD2-induced cAMP); format: cell-based
Procedure: Compounds were categorized as AA (cAMP is less than 100 nM) and A (cAMP is more than 100 nM and less than 5000 nM) as shown in Table 99 and 100.

[2] = biological target: CRTH2 (Homo sapiens (Human), UniProt Q9Y5Y4); assay: CRTH2 receptor binding inhibitory activity ([3H]-PGD2 displacement, membranes of CRTH2-expressing K562 cell)
Procedure, shortened: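 CRTH2-expressing K562 membranes (20 μg/well) in 50 mM Tris/HCl pH 7.4 with 10 mM MgCl2 were incubated with [3H]-PGD2 for 60 min at room temperature, then filtered.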

[3] = category of cAMP IC50, human DP1 receptor expressing Jurkut cell
[4] = CRTH2 receptor binding, [3H]-PGD2 displacement, membrane of CRTH2-expressing K562 cell, categorized AAAA/AAA, read-out: Ki
[5] = [3H]-PGD2 displacement, membrane of CRTH2-expressing K562 cell, read-out: Ki
[6] = IC50 of PGD2 (60 nM)-induced cAMP increase, human DP1 receptor expressing Jurkut cell

Chain of Human DP1 receptor (Q13258 whole entry): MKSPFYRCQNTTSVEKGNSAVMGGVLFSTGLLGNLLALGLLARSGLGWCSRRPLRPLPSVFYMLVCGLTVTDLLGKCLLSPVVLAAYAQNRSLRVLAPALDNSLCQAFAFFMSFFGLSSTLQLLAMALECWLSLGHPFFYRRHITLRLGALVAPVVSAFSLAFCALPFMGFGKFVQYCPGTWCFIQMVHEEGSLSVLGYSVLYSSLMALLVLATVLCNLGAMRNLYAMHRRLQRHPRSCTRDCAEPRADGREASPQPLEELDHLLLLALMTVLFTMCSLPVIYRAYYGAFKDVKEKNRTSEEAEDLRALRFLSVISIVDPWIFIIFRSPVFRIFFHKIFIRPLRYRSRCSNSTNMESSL
Chain of CRTH2 (Q9Y5Y4 whole entry): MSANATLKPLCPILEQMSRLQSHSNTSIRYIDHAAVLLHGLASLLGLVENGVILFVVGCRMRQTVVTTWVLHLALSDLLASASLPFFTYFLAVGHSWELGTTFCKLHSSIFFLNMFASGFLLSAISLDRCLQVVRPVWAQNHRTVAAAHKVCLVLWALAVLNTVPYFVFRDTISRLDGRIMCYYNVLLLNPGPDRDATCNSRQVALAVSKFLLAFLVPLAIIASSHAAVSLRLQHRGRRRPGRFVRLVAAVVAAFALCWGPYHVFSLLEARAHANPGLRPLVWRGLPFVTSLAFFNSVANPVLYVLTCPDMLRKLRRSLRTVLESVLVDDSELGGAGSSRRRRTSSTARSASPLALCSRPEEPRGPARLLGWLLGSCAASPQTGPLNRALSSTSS

Structure (SMILES) | IC50 [1, 3] | Ki [2, 4] | Ki [2, 5] | Ki [2] | IC50 [1, 6]
CC(C)Oc1ccc(S(=O)(=O)N2C[C@H](n3nc(CC(=O)O)c4ccc(F)cc43)C[C@@H]2COc2ccc(O)cc2)cc1 [Compound I-347] | < 100 nM | 100 to 5000 nM |  |  | 
Cc1ccc2c(CC(=O)O)nn([C@H]3CN(S(=O)(=O)c4ccc(OC(C)C)nc4)C[C@H]3C)c2c1 [Compound I-229] | < 100 nM | < 100 nM |  |  | 
CCOc1ccc(S(=O)(=O)N2C[C@@H](C)[C@@H](n3nc(CC(=O)O)c4ccccc43)C2)c(CO)c1 [Compound I-277] | < 100 nM | < 100 nM |  |  | 
CC(C)Oc1ccc(S(=O)(=O)N2C[C@H](n3nc(CC(=O)O)c4cc(Cl)ccc43)C[C@H]2C)cc1 [Compound I-15] | 100 to 5000 nM | < 100 nM | 56 nM |  | 
CC(C)NC(=O)[C@@H]1C[C@@H](n2nc(CC(=O)O)c3ccc(F)cc32)CN1S(=O)(=O)c1ccc(OC(C)C)cc1 [Compound I-6] | 100 to 5000 nM | 100 to 5000 nM |  |  | 
C[C@@H]1CN(S(=O)(=O)c2ccc(C3CC3)cc2)C[C@@H]1n1nc(CC(=O)O)c2ccc(F)cc21 [Compound I-113] | < 100 nM | < 100 nM | 17 nM |  | 
CC(C)Oc1ccc(S(=O)(=O)N2[C@@H]3CC[C@H]2C[C@H](n2nc(CC(=O)O)c4ccc(F)cc42)C3)cc1 [Compound I-81] | 100 to 5000 nM |  |  | 100 to 5000 nM | 
CCOc1ccc(S(=O)(=O)N2C[C@@H](C)[C@@H](n3nc(CC4=NNC(=O)C4)c4ccccc43)C2)cc1 [Compound I-297] | 100 to 5000 nM | 100 to 5000 nM |  |  | 
CC(C)Oc1ccc(S(=O)(=O)N2C[C@H](n3nc(CC(=O)O)c4cccc(F)c43)C[C@@H]2C(F)F)cc1 [Compound I-133] | 100 to 5000 nM | 100 to 5000 nM |  |  | 
CC(C)Oc1ccc(S(=O)(=O)N2C[C@@H](CCO)[C@@H](n3nc(CC(=O)O)c4ccc(F)cc43)C2)cc1 [Compound I-40] | 100 to 5000 nM | < 100 nM |  |  | 
C[C@@H]1CN(S(=O)(=O)c2ccc(OC(F)F)cc2)C[C@@H]1n1nc(CC(=O)O)c2ccccc21 [Compound I-98] | < 100 nM | < 100 nM |  |  | 
CCOc1ccc(S(=O)(=O)N2C[C@@H](C)[C@@H](n3nc(CC(=O)O)c4ccccc43)C2)c(CCCO)c1 [Compound I-280] | 100 to 5000 nM | < 100 nM | 7.8 nM |  | 
COc1ccc(S(=O)(=O)N2C[C@H](n3nc(CC(=O)O)c4ccccc43)[C@@](C)(F)C2)cn1 (racemic) [Compound I-208] | 100 to 5000 nM | < 100 nM |  |  | 
C[C@@H]1CN(S(=O)(=O)c2ccc(OC(F)F)cc2)C[C@@H]1n1nc(CC(=O)O)c2ccc(C(F)(F)F)cc21 [Compound I-127] | < 100 nM | < 100 nM |  |  | 
CC(C)Oc1ccc(S(=O)(=O)N2C[C@H](n3nc(CC(=O)O)c4ccc(F)cc43)C[C@@H]2C(N)=O)cc1 [Compound I-3] | 100 to 5000 nM | 100 to 5000 nM |  |  | 350 nM
CCOc1ccc(S(=O)(=O)N2C[C@@H](C)[C@@H](n3nc(CC(=O)O)c4cc(Cl)ccc43)C2)cc1 [Compound I-161] | < 100 nM | 100 to 5000 nM |  |  | 
COCCOCCOC[C@H]1C[C@@H](n2nc(CC(=O)O)c3ccc(F)cc32)CN1S(=O)(=O)c1ccc(OC(C)C)cc1 [Compound I-291] | 100 to 5000 nM | 100 to 5000 nM |  |  | 
CCc1ccc(S(=O)(=O)N2C[C@@H](C)[C@@H](n3nc(CC(=O)O)c4ccc(C(F)(F)F)cc43)C2)cc1 [Compound I-126] | < 100 nM | < 100 nM |  |  | 
CCOc1ccc(S(=O)(=O)N2C[C@@H](C)[C@@H](n3nc(CC(=O)O)c4cc(C)ccc43)C2)cc1 [Compound I-202] | < 100 nM | 100 to 5000 nM |  |  | 
CCOc1ccc(S(=O)(=O)N2C[C@@H](C)[C@@H](n3nc(CC(=O)NS(C)(=O)=O)c4ccccc43)C2)cc1 [Compound I-212] | 100 to 5000 nM | 100 to 5000 nM |  |  | 
Cc1ccc(S(=O)(=O)N2C[C@@H](C)[C@@H](n3c(C)c(CC(=O)O)c4ccccc43)C2)cc1 [Compound I-288] | 100 to 5000 nM | < 100 nM | 40 nM |  | 100 nM
CCOc1ccc(S(=O)(=O)N2C[C@H](C)[C@@H](n3nc(CC(=O)O)c4ccccc43)C2)cc1 [Compound I-198] | 100 to 5000 nM | < 100 nM |  |  | 
CC(C)Oc1ccc(S(=O)(=O)N2C[C@@H](C)[C@@H](n3nc(CC(=O)O)c4cc5c(cc43)OCO5)C2)cc1 [Compound I-174] | < 100 nM | < 100 nM | 50 nM |  | 99 nM
CCOc1ccc(S(=O)(=O)N2C[C@@H](n3nc(CC(=O)O)c4ccc(F)cc43)[C@@H](C)[C@@H]2C#N)cc1 [Compound I-155] | 100 to 5000 nM | 100 to 5000 nM |  |  | 
CCOc1ccc(S(=O)(=O)N2C[C@@H](C)[C@@H](n3nc(CC(=O)O)c4ccccc43)C2)c(COC)c1 [Compound I-184] | 100 to 5000 nM | < 100 nM |  |  | 
Cc1c(CC(=O)O)c2ccccc2n1[C@@H]1C[C@H](C)N(S(=O)(=O)c2ccc(OC(F)F)cc2)C1 [Compound I-316] | 100 to 5000 nM | 100 to 5000 nM | 220 nM |  | 110 nM
